Results as given in ChEMBL document CHEMBL2069188, “Structural requirements for the antitubercular quaternized triflupromazine pharmacophore” (Bioorg Med Chem Lett, 2012).
Converted amounts (≈) assume the structure as drawn.

How the values were obtained:
[1] = Selectivity index, ratio of IC50 for african green monkey Vero cells to MIC for Mycobacterium tuberculosis H37Rv; type: functional
Vero = experiment: Cytotoxicity against african green monkey Vero cells […] after 3 days; type: cell-based; conditions: Chlorocebus sabaeus, 72 h
[2] = system: Mycobacterium tuberculosis; experiment: Antitubercular activity against Mycobacterium tuberculosis H37Rv by microplate alamar blue assay; type: functional

Row | SMILES | Selectivity Index [1] | IC50 (Vero) | MIC90 [2]
1 | C[N+](C)(CCCN1c2ccccc2Sc2ccc(C(F)(F)F)cc21)Cc1ccc(Cl)cc1.[Cl-] | >14 | > 128 µM | 9 µM
2 | C#CC[N+](C)(C)CCCN1c2ccccc2Sc2ccc(C(F)(F)F)cc21 | – | – | 121 µM
3 | C#CC[N+](C)(C)CCCN1c2ccccc2Sc2ccccc21 | – | – | > 128 µM
4 | C[N+](C)(CC#N)CCCN1c2ccccc2Sc2ccc(C(F)(F)F)cc21 | – | – | > 128 µM
5 | C[N+](C)(CCCN1c2ccccc2Sc2ccc(C(F)(F)F)cc21)Cc1ccc(F)cc1.[Cl-] | >11 | > 128 µM | 11.9 µM
6 | FC(F)(F)c1ccc2c(c1)N(Cc1cn(Cc3ccc(Cl)cc3)nn1)c1ccccc1S2 | – | > 128 µM | > 100 µM
7 | CCCC[N+](C)(C)CCCN1c2ccccc2Sc2ccc(C(F)(F)F)cc21 | – | – | 53.2 µM
8 | CO[C@H]1/C=C/O[C@@]2(C)Oc3c(C)c(O)c4c(O)c(c(/C=N/N5CCN(C)CC5)c(O)c4c3C2=O)NC(=O)/C(C)=C\C=C\[C@H](C)[C@H](O)[C@@H](C)[C@@H](O)[C@@H](C)[C@H](OC(C)=O)[C@@H]1C [RIFAMPIN] | >909 | > 100 µM | 0.09 µM (≈ 0.0741 µg/mL)
9 | C[N+](C)(CCCN1c2ccccc2Sc2ccc(C(F)(F)F)cc21)Cc1ccc(Br)cc1.[Br-] | >21 | > 128 µM | 6 µM
10 | C[N+](C)(CCCN1c2ccccc2Sc2ccc(C(F)(F)F)cc21)Cc1ccc(I)cc1.[Br-] | >16 | 92.7 µM | 5.9 µM
11 | C=CC[N+](C)(C)CCCN1c2ccccc2Sc2ccccc21 | – | – | > 128 µM
12 | C=CC[N+](C)(C)CCCN1c2ccccc2Sc2ccc(C(F)(F)F)cc21 | – | – | > 128 µM
